What was measured:
[1] = Oral pharmacokinetic / bioavailability study in rabbits; type: in vivo, New Zealand white rabbits; conditions: rabbit, equivalent to 200 mg pazopanib
Method: A bioavailability study was carried out to assess the drug absorption and pharmacokinetic parameters of different prepared formulations. A suitable animal was selected, and in vivo studies were performed in accordance with the ethical guidelines for animal care and use committee.
New Zealand white rabbits (Species and strain: […]) (5–6 months older, 2.0 ± 0.2 kg, 34–50 cm without tail) were utilized in this study. Animals were maintained at standard environmental conditions of temperature 24 ± 2 °C, humidity (55 ± 5%), under 12:12 h light (08:00–20:00 h)/dark cycle. Animals had free access to rodent chow and tap water ad libitum. Approval for animal studies was gained by the Institutional Animal Ethics Committee (Protocol no. IAEC; 1888/PO/Re/S/16/ CPCSEA/2022/01), constituted for the purpose of control and supervision of experimental animals and agreed with the globally acknowledged Principles for Laboratory Animal Use and Care as indicated by the National Institutes of Health Guide (NIH Publication No. 85–23, revised 1985). Animals were naive to drug treatments and experimentation, at the beginning of all studies. All tests were conducted at BM College of Pharmaceutical Education and Research (BMCPER), Indore, M.P. between 09:00 and 18:00 h.
Animals (n = 3) were settled into three different groups. First group (control) received Pazopanib drug (control), second group received the marketed pazopanib hydrochloride immediate release tablet (Votrient Tablets, 200 mg), while third group received drug formulations (equivalent to 200 mg of Pazopanib) prepared using HME technique, respectively. Dosage forms were administered orally via gastric intubation. Animals were fasted for 12 h with free access to water prior to drug administration. Rabbits were held in rabbit restrainers during blood sampling. Blood samples were collected in heparinized tubes from ear veins at predetermined time points (0, 0.5, 1, 2, 3, 4, 6, 8, 12, and 24 h) after oral administration. Plasma samples were obtained following centrifugation of blood at 3200× g for 5 min at 2–8 °C and kept frozen at −70 °C until analysis.
Pazopanib plasma concentration was plotted against time to obtain the concentration–time profiles, which were used to determine the peak blood concentration (Cmax) and time to achieve the peak concentration (Tmax). Non-compartmental pharmacokinetic analysis was conducted to calculate the area under the curve from 0 to 24 h [(AUC)0-24). The values of Cmax and Tmax for the test preparation were obtained by actual observations. All data were presented as mean ± standard deviation. In order to determine the area under the curve from 0 to 24 h, a non-compartmental PK study was performed using Win-Nonlin PK/PD software (version 8.1). Comparative blood plasma concentration (µg/mL) at different time points for Pazopanib drug and its formulation are depicted in below Figure 24.

[2] = cited from earlier work
[3] = oral via gastric intubation, fasted, plasma

Cmax [1, 3]: 44700 ng/mL
Tmax [1, 3]: 2 h
T lag ([1]; oral): 0 h
AUC Last ([1]; oral, 0 to 24 h, non-compartmental): 308.675 µg·h/mL
C Last ([1]; oral, last sampling 24 h): 7.6 µg/mL
Compound: Cc1ccc(Nc2nccc(N(C)c3ccc4c(C)n(C)nc4c3)n2)cc1S(N)(=O)=O.Cl [PZB-Drug/API, Pazopanib Hydrochloride]
BCS class [2]: BCS class II
log P [2]: 3.55
pKa [2]: 2.5
